Measured values from patent publication US12459921B2, “Isoindoline compound, preparation method, pharmaceutical composition and use thereof” (SHANGHAI INSTITUTE OF MATERIA MEDICA, CHINESE ACADEMY OF …, priority 2018, dated 2025).

System: MM.1S cells
Test: Inhibitory effect on the proliferation of MM.1S, MTS cell viability test
Format: cell-based
Settings: Homo sapiens, MM1.S, 168 h, multiple myeloma MM.1S cells, 7 days incubation, read-out: Tumor cell inhibitory activity
Experimental: Method of tumor cell proliferation inhibition test: the inventors tested all the example compounds on hematologic tumor cells, multiple myeloma MMTs cell line and acute leukemia cell MV-4-11 cell line of some examples. The activity test method and results are as follows.
1. The Compound's Inhibitory Effect on the Proliferation of MM.1S, MTS Cell Viability Test:
MM.1S cells were cultured and collected with 1640 plus 10% fetal bovine serum. The cell concentration was diluted according to 7 days, and 180 ul cell suspension was added to each well of the 96-well cell plate to 20,000 cells. 20 ul of DMSO with a final concentration of 0.2% was added to the control wells. The compound was 5-fold diluted—from the 10 mM stock solution, and 20 ul was also added to each compound cell well (the final concentration of DMSO was 0.2%). The cells were placed in a 37° C., 5% CO2 incubator to incubate for 7 days. After the reaction solution was prepared according to the MTS kit (Promega, G5430), 20 μL was added to each well and incubated in a 37° C., 5% CO2 incubator for 3-4 h. Absorbance value at 490 nm was read with a microtiter plate, and 690 nm absorbance value was used as the background value. OD490-OD690 was used as the final initial data. The formula for calculating the inhibition rate of the compound is: inhibition rate=(ODDMSO-ODcompound)/(ODDMSO-Oblank)×100%. The compound's proliferation inhibition IC50 was fitted by Graph Pad Prism 5.0. The experiment was repeated three times, and the average and standard deviation was calculated according to the three parallel experiments.
Cell viability test results: **** represents cell viability IC50>20 μM, […] represents cell viability 1 μM<IC50<20 μM, ** represents cell viability 100 nM<IC50<1 μM, * represents cell viability IC50<100 nM.

Row | Structure (SMILES) | IC50
1 | N#CC1(c2ccccc2Cl)CCN(CCCCc2cccc3c2CN(C2CCC(=O)NC2=O)C3=O)CC1 (stereo not shown) [Example 91, 4-(2-chlorophenyl)-1-(4-(2-(2,6-dioxopiperidine-3-)-1-oxoisoindoline-4-)butyl)piperidine-4-carbonitrile] | < 100 nM
2 | O=C1CCC(N2Cc3c(OCCCCC(=O)N4CCCc5ccccc54)cccc3C2=O)C(=O)N1 (stereo not shown) [Example 119, 3-(4-((5-(3,4-dihydroquinoline-1(2H)-)-5-oxopentyl)oxy)-1-oxoisoindoline-2-)piperidine-2,6-dione] | < 100 nM
3 | O=C1CCC(N2Cc3c(CCCCN4CCN(c5ccccc5[N+](=O)[O-])CC4)cccc3C2=O)C(=O)N1 (stereo not shown) [Example 216, 3-(4-(4-(4-(2-nitrophenyl)piperazine-1-yl)butyl)-1-oxoisoindoline-2-yl) piperidine-2,6-dione] | < 100 nM
4 | O=C1CCC(N2Cc3c(OCCCCC(=O)N4CCc5ccccc54)cccc3C2=O)C(=O)N1 (stereo not shown) [Example 118, 3-(4-((5-(indoline-1-)-5-oxopentyl)oxy)-1-oxoisoindoline-2-)piperidine-2,6-dione] | < 100 nM
5 | N#CC1(c2ccccc2Cl)CCN(CCCCCc2cccc3c2CN(C2CCC(=O)NC2=O)C3=O)CC1 (stereo not shown) [Example 92, 4-(2-chlorophenyl)-1-(5-(2-(2,6-oxopiperidine-3-)-1-oxoisoindoline-4-)pentyl)piperidine-4-carbonitrile] | < 100 nM
6 | O=C1CCC(N2Cc3c(OCCCC(=O)N4CCN(c5cccc(Cl)c5Cl)CC4)cccc3C2=O)C(=O)N1 (stereo not shown) [Example 29, 3-(4-(4-(4-(2,3-dichlorophenyl)piperazine-1-)-4-oxobutoxy)-1-oxoisoindoline-2-)piperidine-2,6-dione] | < 100 nM
7 | O=C1CCC(N2Cc3c(CCCCCN4CCC(c5ccccc5)CC4)cccc3C2=O)C(=O)N1 (stereo not shown) [Example 20, 3-(1-oxo-4-(5-(4-phenylpiperidine-1-)pentyl)indoline-2-)piperidine-2,6-dione] | > 20000 nM
8 | N#CC1(c2ccc(Cl)cc2)CCN(CCCOc2cccc3c2CN(C2CCC(=O)NC2=O)C3=O)CC1 (stereo not shown) [Example 59, 4-(4-chlorophenyl)-1-(3-((2-(2,6-dioxopiperidine-3-)-1-oxoisoindoline-4-)oxy)propyl)piperidine-4-carbonitrile] | < 100 nM
9 | O=C1CCC(N2Cc3c(CCCCCN4CCCCc5ccccc54)cccc3C2=O)C(=O)N1 (stereo not shown) [Example 111, 3-(1-oxo-4-(5-(2,3,4,5-tetrahydro-TH-benzo[b]azepine-1-)pentyl)isoindoline-2-)piperidine-2,6-dione] | 100 to 1000 nM
10 | COc1ccc(C2(C#N)CCN(CCCCCc3cccc4c3CN(C3CCC(=O)NC3=O)C4=O)CC2)c(OC)c1 (stereo not shown) [Example 255, 4-(2,4-dimethoxyphenyl)-1-(5-(2-(2,6-dioxopiperidin-3-yl)-1-oxoisoindoline-4-yl)pentyl)piperidine-4-carbonitrile] | 1000 to 20000 nM
11 | O=C1CCC(N2Cc3c(OCCCCN4CCC5(CC4)OCc4ccc(Cl)cc45)cccc3C2=O)C(=O)N1 (stereo not shown) [Example 124, 3-(4-(4-(6-chloro-3H-spiro[isobenzofuran-1,4′-piperidine]-1′-)butoxy)-1-oxoisoindoline-2-)piperidine-2,6-dione] | < 100 nM
12 | O=C1CCC(N2Cc3c(CCCCCN4CCN(c5noc6ccccc56)CC4)cccc3C2=O)C(=O)N1 (stereo not shown) [Example 231, 3-(4-(5-(4-(benzisoxazole-3-yl)piperazin-1-yl)pentyl)-1-oxoisoindoline-2-yl) piperidine-2,6-dione] | 1000 to 20000 nM
13 | COc1ccc(C2(C#N)CCN(CCCCc3cccc4c3CN(C3CCC(=O)NC3=O)C4=O)CC2)c(OC)c1 (stereo not shown) [Example 256, 4-(2,4-dimethoxyphenyl)-1-(4-(2-(2,6-dioxopiperidin-3-yl)-1-oxoisoindoline-4-yl)butyl)piperidine-4-carbonitrile] | 1000 to 20000 nM
14 | COc1ccc(C2(C#N)CCN(CCCCCc3cccc4c3CN(C3CCC(=O)NC3=O)C4=O)CC2)c(OC)c1OC (stereo not shown) [Example 254, 1-(5-(2-(2,6-dioxopiperidin-3-yl)-1-oxoisoindolin-4-yl)pentyl)-4-(2,3,4-trimethoxyphenyl)piperidine-4-carbonitrile] | 1000 to 20000 nM
15 | O=C1CCC(N2Cc3c(CCCCCN4CCC5(CC4)OCc4cc(Cl)ccc45)cccc3C2=O)C(=O)N1 (stereo not shown) [Example 274, 3-(4-(5-(5-chloro-3H-spiro[isobenzofuran-1,4′-piperidin]-1-yl)pentyl)-1-oxoisoindoline-2-yl)piperidine-2,6-dione] | 100 to 1000 nM
16 | O=C1CCC(N2Cc3c(CCCCCN4CCN(c5cc(Cl)ccc5Cl)CC4)cccc3C2=O)C(=O)N1 (stereo not shown) [Example 233, 3-(4-(5-(4-(2,5-dichlorophenyl)piperazine-1-yl)pentyl)-1-oxoisoindoline-2-yl) piperidine-2,6-dione] | 100 to 1000 nM
17 | O=C1CCC(N2Cc3c(CCCCCN4CCC5(CC4)C(=O)Nc4cccc(Cl)c45)cccc3C2=O)C(=O)N1 (stereo not shown) [Example 276, 3-(4-(5-(4-chloro-2-oxospiro[dihydroindole-3,4-piperidin]-1-yl)pentyl)-1-oxoisoindoline-2-yl)piperidine-2,6-dione] | 100 to 1000 nM

Second part, the compound after the results:

Row | IC50 | Structure (SMILES)
18 | < 100 nM | Cc1ccc(NC(=O)NCCCCOc2cccc3c2CN(C2CCC(=O)NC2=O)C3=O)cc1Cl (stereo not shown) [Example 162, 1-(3-chloro-4-methylphenyl)-3-(4-((2-(2,6-dioxopiperidine-3-)-1-oxoisoindoline-4-)oxy)butyl)urea]
19 | 100 to 1000 nM | O=C1CCC(N2Cc3c(CCCOc4ccnc5ccccc45)cccc3C2=O)C(=O)N1 (stereo not shown) [Example 2, 3-(1-oxo-4-(3-(quinoline-4-oxy)propyl)isoindoline-2-)piperidine-2,6-dione]
20 | 100 to 1000 nM | CC(=O)N[C@@H](CCCc1cccc2c1CN(C1CCC(=O)NC1=O)C2=O)C(=O)NCc1ccc(F)cc1F (stereo partly drawn) [Example 178, (2S)-2-acetylamino-N-(2,4-difluorobenzyl)-5-(2-(2,6-dioxopiperidine-3-)-1-oxoisoindoline-4-)oxoisoindoline]
21 | < 100 nM | O=C1CCC(N2Cc3c(CCCCOc4ccnc5ccccc45)cccc3C2=O)C(=O)N1 (stereo not shown) [Example 15, 3-(1-oxo-4-(4-(quinoline-4-oxy)butyl)isoindoline-2-)piperidine-2,6-dione]
22 | 100 to 1000 nM | Cc1ccc(NC(=O)[C@H](CCCc2cccc3c2CN(C2CCC(=O)NC2=O)C3=O)NC(=O)C2CCNCC2)cc1Cl (stereo partly drawn) [Example 191, N-((2S)-1-((3-chloro-4-methylphenyl)amino)-5-(2-(2,6-dioxopiperidine-3-) -1-oxoisoindoline-4-)-1-oxopentyl-2-)piperidine-4-carboxamide]
23 | 100 to 1000 nM | CC(=O)N[C@@H](CCCc1cccc2c1CN(C1CCC(=O)NC1=O)C2=O)C(=O)NC(c1ccccc1)c1ccccc1 (stereo partly drawn) [Example 181, (2S)-2-acetylamino-N-benzhydryl-5-(2-(2,6-dioxopiperidine-3-)-1-oxoisoindoline-4-) pentanamide]
24 | 1000 to 20000 nM | O=C1CCC(N2Cc3c(CCCCCN4CCCc5ccc(Cl)cc54)cccc3C2=O)C(=O)N1 (stereo not shown) [Example 109, 3-(4-(5-(7-chloro-3,4-dihydroquinoline-1(2H))pentyl)-1-oxoisoindoline-2-)piperidine-2,6-dione]
25 | 1000 to 20000 nM | CC(=O)N[C@@H](CCCc1cccc2c1CN(C1CCC(=O)NC1=O)C2=O)C(=O)NC(C)(C)C (stereo partly drawn) [Example 168, (2S)-2-acetylamino-N-tert-butyl-(2-(2,6-dioxopiperidine-3-)-1-oxoisoindoline-4-)pentanamide]
